Where “and” joins values, the source holds several entries; their conditions need not be identical. Equal entries are not always repeated. Where two headings read alike, the source gives them in different places.
Key:
[1] = system: DEB025^res HCV subgenomic replicon (Con1-GT1b) in Huh 9–13 cells; set-up: method as in PMID 19104013; conditions: cited from earlier work
Procedure: (§1) Replicon-containing cells were continuously passaged in these double-selection media. When cultures had adapted to replication in the presence of a particular concentration of DEB025 (i.e. no more massive cell death) the concentration was increased in steps of 0.21 µM (typically every 3 passages).

[2] = system: mutant GT1b subgenomic luciferase replicons in Huh7-Lunet cells; type: cell-based, Hepatitis C virus genotype 1b; conditions: for sensitivity of the generated mutant replicons compared to WT: site-directed mutant replicons, data not shown; for fold reduction in sensitivity (based on EC50-values) compared to WT replicon: luciferase assay
[3] = system: CsA^res HCV subgenomic replicon (Con1-GT1b) in Huh 9–13 cells; set-up: method as in PMID 19104013; conditions: cited from earlier work
[4] = system: recombinant replicon with DEB025^res NS5B gene in Huh7-Lunet cells; type: cell-based, Hepatitis C virus genotype 1b; conditions: entire NS5B gene of DEB025^res replicon in WT background, control NS5B from WT cells
Procedure: (§2) For comparative reasons also the original unmanipulated vector was included in the analysis. […] Data are mean values ± standard deviations for at least three independent experiments. (C) Replication fitness of the different recombinant replicons. Huh7-Lunet cells were transiently transfected with each of the indicated replicon constructs and replicon RNA replication was quantified by means of a luciferase assay for 4 days post transfection. Data are normalized to the 4 h-value post electroporation to account for differences in electroporation efficiency and is expressed as percentage of the WT-value at 96 h post electroporation. Data are mean values ± standard deviations for at least two independent experiments.
(§3) RNA was isolated from either DEB025^res or WT HCV subgenomic replicon cells using the RNeasy mini kit (Qiagen). First-strand cDNA was synthesized using SuperScript II RT (Invitrogen). The NS5A or NS5B-containing regions were amplified in an AccuPrime Pfx DNA polymerase reaction (Invitrogen) for subsequent cloning into the WT Con1 plasmid. All constructs were sequenced to verify the correct manipulation.
Huh7-Lunet single-cell suspensions were prepared by trypsinization, washed twice with Opti-MEM® I (Invitrogen) and then resuspended at 1×10∧7 cells per ml in Cytomix containing 2 mM ATP and 5 mM glutathione. […]

HCV = conditions: cited from earlier work; for viral load reduction: genotype 1 null/partial responders, 29 days; for decrease in viral load: phase II
Excerpt: (§4) Several CsA-analogues, i.e. NIM811 [19], DEB025 and SCY-635 [20], are currently in preclinical and clinical development. […] We reported earlier on the potent in vitro anti-HCV activity of DEB025 [22] and on the particular characteristics of its anti-HCV activity.

calcineurin = conditions: cited from earlier work
Excerpt: as §4

[5] = cited from earlier work
Excerpt: as §4

[6] = system: recombinant replicon with DEB025^res NS5A sequence in Huh7-Lunet cells
Procedure: (§5) The antiviral phenotype of this construct was evaluated in comparison with a construct into which the NS5A region derived from WT Huh 9–13 cells (which were cultured in parallel), was swapped.
as §2, §3
(§6) Huh7-Lunet single-cell suspensions were prepared by trypsinization, washed twice with Opti-MEM® I (Invitrogen) and then resuspended at 1×10∧7 cells per ml in Cytomix containing 2 mM ATP and 5 mM glutathione. Ten µg of in vitro transcribed RNA was mixed with 400 µl cell suspension in a cuvette with a gap width of 4 mm (VWR International) and an ECM 830 Electro Square Porator™ (BTX Harvard Apparatus) was used to deliver 5 pulses at 900 V, 99 µsec. Cells were immediately transferred to 20 ml complete DMEM and seeded as required for the assay. Briefly, 100 or 700 µl aliquots of the cell suspension were seeded in a 96- or 24-well plate (Iwaki), respectively, filled with serial dilutions of the antiviral molecule in complete DMEM.

[7] = system: recombinant replicon with WT NS5A sequence in Huh7-Lunet cells; conditions: read-out: EC50, inhibition of replicon replication, replicon engineered to contain WT NS5A sequence, transient, 72 h, luciferase, mean ± SD
Procedure: as §5, §2, §3, §6

[8] = system: WT replicon RNA in Huh7-Lunet cells; conditions: read-out: EC50, inhibition of replicon RNA, Huh7-Lunet stably transfected with WT replicon RNA, RT-qPCR, mean ± SD
Procedure: (§7) HCV replicon RNA was quantified by means of RT-qPCR and is expressed as the percentage of HCV replicon RNA of the untreated control cells. Data are mean values ± standard deviations for at least three independent experiments.
(§8) One day before lipofection, Huh7-Lunet cured cells were seeded in a 25 cm^2 flasks at a cell density of 5.26×10^5 cells. Just before transfection, the cells were washed once with opti-MEM® I (Invitrogen) and incubated for 4 h at 37°C with transfection medium containing: 26.3 µg of RNA, DMRIE-C Reagent (Invitrogen) and opti-MEM I serum free medium. Four hours post transfection, medium was replaced by culture medium without G418. Depending on the proliferation of the cells, G418 was gradually added to the cultures (to a final concentration of 1 mg/ml) to generate stable cell lines.

[9] = system: DEB025^res replicon RNA in Huh7-Lunet cells
Procedure: as §7, §8

[10] = system: WT HCV subgenomic replicon (Con1-GT1b) in Huh 9–13 cells
Excerpt: Huh7 cells containing subgenomic HCV genotype 1b replicon I377/NS3-3′/wt (Huh 9–13) [47], [48] and I389luc-ubi-neo/NS3-3′/5.1 (Huh 5–2) were used to select for resistance.

[11] = system: replicons resistant to DAA inhibitors of different classes; conditions: cited from earlier work
[12] = system: JFH1-derived subgenomic replicon (GT2a); conditions: replicon with mutation near NS5A/NS5B cleavage site (position 464); cited from earlier work
[13] = system: DEB025^res HCV subgenomic replicon (Con1-GT1b) in Huh 9–13 cells; conditions: read-out: EC50, inhibition of HCV replicon RNA, DEB025^res Huh 9-13 culture, 72 h treatment, RT-qPCR, mean ± SD, at least three independent experiments
Procedure: as §1
(§9) HCV replicon RNA was quantified by means of RT-qPCR and is expressed as the percentage of HCV replicon RNA of the untreated control cells. Data are mean values±standard deviations for at least three independent experiments.
(§10) When cells suffered from compound pressure, G418 pressure was removed till cells recovered. […] Four independent resistance selection experiments were carried out, three with Huh 9–13 replicons and one with Huh 5–2 replicons.
(§11) HCV replication assays were performed and analysed using published procedures.

[14] = system: CsA^res HCV subgenomic replicon (Con1-GT1b) in Huh 9–13 cells; conditions: read-out: EC50, inhibition of HCV replicon RNA, CsA^res Huh 9-13 culture, 72 h treatment, RT-qPCR, mean ± SD, at least three independent experiments
Procedure: as §1, §9, §10, §11

CypA = target: T1, CypA (Homo sapiens, UniProt P62937); conditions: cited from earlier work
T1 construct: made in house
T1 sequence (P62937 whole entry): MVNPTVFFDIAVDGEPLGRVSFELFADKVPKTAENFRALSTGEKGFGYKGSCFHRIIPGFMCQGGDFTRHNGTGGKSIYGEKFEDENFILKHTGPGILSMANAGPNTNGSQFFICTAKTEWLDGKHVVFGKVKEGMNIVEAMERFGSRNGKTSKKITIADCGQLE

[15] = system: HCV subgenomic replicon (Con1-GT1b) in Huh 9–13 cells

Procedure for CypA-NS5A interaction: We next studied whether the NS5A mutations, either alone or in combination, have an influence on (i) the binding of NS5A to CypA and (ii) the sensitivity of the CypA-NS5A interaction to DEB025.
Glutathione beads were added to the GST-CypA/NS5A-His mixture for 30 min at 4°C and washed. Bound material was eluted and analyzed by Western blotting using anti-His and anti-CypA antibodies. (C) The percentage of NS5A pulled down in the presence of increasing concentrations of DEB025, relative to the amount of NS5A pulled down in the absence of the drug.
NS5A mutants were created by site-directed mutagenesis.
Pull-down experiments were conducted as described previously [55]. Briefly, GST-CypA (100 ng) was mixed with 10 ng of NS5A-His in a total volume of 200 µl for 3 h at 4°C on a rotating wheel. Glutathione beads (25 µl) were added to the GST-CypA/NS5A-His mixture for 30 min at 4°C and samples were washed 3 times thereafter. […] Bound material was then analyzed by Western blotting using anti-CypA and anti-His antibodies as described previously [9]. […] To calculate the percent of NS5A pulled down relative to the amount of NS5A pulled down in the absence of the drug scans of ECL-developed films were analyzed by Bio-Rad densitometer model 620 and quantified by Bio-Rad Program Manager software (Bio-Rad Laboratories, Inc., Hercules, CA). […]

C[C@@]1(O)[C@H](O)[C@@H](CO)O[C@H]1n1ccc(N)nc1=O [2′-C-methylcytidine]
antiviral activity against DEB025^res replicons compared to WT [1]: retained WT-antiviral activity | sensitivity of the generated mutant replicons compared to WT [2]: retained WT-activity | antiviral activity against CsA^res replicons compared to WT [3]: retained WT-antiviral activity

[N-]=[N+]=N[C@]1(CO)O[C@@H](n2ccc(N)nc2=O)[C@H](O)[C@@H]1O [4′-azidocytidine]
antiviral activity against DEB025^res replicons compared to WT [1]: retained WT-antiviral activity | antiviral activity against CsA^res replicons compared to WT [3]: retained WT-antiviral activity

COc1ccc2c(O[C@@H]3C[C@H]4C(=O)N[C@]5(C(=O)O)C[C@H]5/C=C\CCCCC[C@H](NC(=O)OC5CCCC5)C(=O)N4C3)cc(-c3csc(NC(C)C)n3)nc2c1 [BILN2061]
antiviral activity against DEB025^res replicons compared to WT [1]: retained WT-antiviral activity | antiviral activity against CsA^res replicons compared to WT [3]: retained WT-antiviral activity

C/C=C/C[C@@H](C)[C@@H](O)[C@H]1C(=O)N[C@@H](CC)C(=O)N(C)[C@H](C)C(=O)N(CC)[C@@H](C(C)C)C(=O)N[C@@H](C(C)C)C(=O)N(C)[C@@H](CC(C)C)C(=O)N[C@@H](C)C(=O)N[C@H](C)C(=O)N(C)[C@@H](CC(C)C)C(=O)N(C)[C@@H](CC(C)C)C(=O)N(C)[C@@H](C(C)C)C(=O)N1C [DEB025, Alisporivir]
effect of DEB025^res NS5B gene in WT background on antiviral activity [4]: No reduction in antiviral activity | viral load reduction (HCV; 400 mg daily (with initial loading dose) combined with pegIFN/RBV): −1.96 log10 IU/ml | viral load reduction (HCV; 800 mg daily combined with pegIFN/RBV): −2.38 log10 IU/ml | mean maximal decrease in HCV viral load (HCV; phase I, HCV/HIV-coinfected patients, monotherapy 1200 mg BID, after 15 days): −3.6 log10 IU/ml | decrease in viral load (HCV; treatment-naïve genotype 1 and 4 patients, therapy based on 1000 mg/day DEB025 (combined with pegIFN-α-2a)): −4.75 log10 IU/ml | decrease in viral load (HCV; treatment-naïve genotype 2 and 3 patients): up to −5.89 log10 IU/ml | inhibition of calcineurin (calcineurin): do not inhibit calcineurin | adverse finding ([5]; 1000 mg dose, returned to baseline after treatment cessation): isolated and transient hyperbilirubinemia | tolerability ([5]; lower doses regimens): very well tolerated | EC50 ([6]; read-out: EC50, inhibition of replicon replication, replicon engineered to contain DEB025^res NS5A sequence, transient, 72 h, luciferase, mean ± SD, SD): 390 ± 150 nM | fold less active than in replicon with WT NS5A sequence ([6]; replicon with DEB025^res NS5A vs replicon with WT NS5A): 10 fold | EC50 [7]: 40 ± 10 nM | EC50 [8]: 40 ± 10 nM | fold less active than in WT-transfected cell line ([9]; cells stably transfected with RNA from DEB025^res culture vs WT, on average): 10 fold | EC50 ([9]; read-out: EC50, inhibition of replicon RNA, Huh7-Lunet stably transfected with RNA from DEB025^res culture, RT-qPCR, mean ± SD, SD): 440 ± 70 nM | effect on WT replicon replication at a fixed concentration ([10]; 2.05 µM): completely inhibits WT replicon replication | EC50 ([10]; read-out: EC50, inhibition of HCV replicon RNA, WT Huh 9-13 culture, 72 h treatment, RT-qPCR, mean ± SD, at least three independent experiments, SD): 30 ± 10 nM | activity against replicons resistant to DAA inhibitors compared to WT [11]: retained WT-activity | fold reduced sensitivity of resistant JFH1-derived replicon [12]: ~5 fold | fold change in sensitivity compared to WT [2]: 1.28 fold and 1.93 fold | fold reduction in sensitivity (based on EC50-values) compared to WT replicon ([2]; mutant A241P + R262Q + R318W + D320E): 4.33 fold | fold reduction in sensitivity (based on EC50-values) compared to WT replicon ([2]; mutant NS5A D320E): 3.92 fold and 3.9 fold | fold reduction in sensitivity (based on EC50-values) compared to WT replicon ([2]; mutant NS5A R318W): ~2 fold | effect of NS5B I432V on antiviral activity ([2]; mutant NS5B I432V, luciferase assay (Figure S1)): neither reduced the antiviral activity | fold reduction in sensitivity (based on EC50-values) compared to WT replicon ([2]; mutant R318W + D320E): 3.79 fold | EC50 [13]: 2050 ± 560 nM | EC50 [14]: 460 ± 260 nM | effect on the CypA-NS5A interaction (CypA-NS5A interaction; GST-CypA and His-tagged NS5A pull down, increasing drug concentrations): inhibit the CypA-NS5A interaction in a dose-dependent manner | effect on interactions between CypA and WT or mutated NS5A (CypA-NS5A interaction; WT versus mutated NS5A, pull down): equally disrupted | affinity to CypA compared with CsA (CypA): superior to that of CsA to CypA | passages of selective pressure needed to select resistant replicons ([15]; Huh 9-13, stepwise increasing drug with G418, on average): 35 passages | time of selective pressure needed to select resistant replicons ([15]; Huh 9-13 / Huh 5-2, stepwise increasing drug with G418, average (four independent experiments for DEB025)): 20 weeks

CNC(=O)c1c(-c2ccc(F)cc2)oc2cc(N(CCO)S(C)(=O)=O)c(C3CC3)cc12 [HCV796, reference compound]
sensitivity of the generated mutant replicons compared to WT [2]: retained WT-activity

CCC[C@H](NC(=O)[C@@H]1[C@H]2CCC[C@H]2CN1C(=O)[C@@H](NC(=O)[C@@H](NC(=O)c1cnccn1)C1CCCCC1)C(C)(C)C)C(=O)C(=O)NC1CC1 [VX-950]
antiviral activity against DEB025^res replicons compared to WT [1]: retained WT-antiviral activity | sensitivity of the generated mutant replicons compared to WT [2]: retained WT-activity | antiviral activity against CsA^res replicons compared to WT [3]: retained WT-antiviral activity
